Molecules are shown by their SMILES. Like-named read-outs stand apart in the source and are kept apart here. Bounds are passed on as bounds.

In the assay the target is CFTR (Homo sapiens, UniProt P13569). Put plainly: Membrane Potential Dye, Enteroid Assay B. The format is cell-based. As for the experimental part:
Base medium (ADF+++) consisted of Advanced […], 2 mM Glutamax, 10 mM HEPES, 1 μg/mL penicillin/streptomycin.
Intestinal enteroid maintenance medium (IEMMN) consisted of ADF+++, 1× B27 supplement, 1× N2 supplement, 1.25 mM N-acetyl cysteine, 10 mM Nicotinamide, 50 ng/mL hEGF, 10 nM Gastrin, 1 μg/mL hR-spondin-1, 100 ng/mL hNoggin, TGF-b type 1 inhibitor A-83-01, 100 μg/mL Primocin, 10 μM P38 MAPK inhibitor SB202190.
Bath 1 Buffer consisted of 1 mM MgCl2, 160 mM NaCl, 4.5 mM KCl, 10 mM HEPES, 10 mM Glucose, 2 mM CaCl2).
Chloride Free Buffer consisted of 1 mM Magnesium Gluconate, 2 mM Calcium Gluconate, 4.5 mM Potassium Gluconate, 160 mM Sodium Gluconate, 10 mM HEPES, 10 mM Glucose.
Bath 1 Dye Solution consisted of Bath 1 Buffer, 0.04% Pluronic F127, 20 μM Methyl Oxonol, 30 μM CaCCinh-A01, 30 μM Chicago Sky Blue.
Chloride Free Dye Solution consisted of Chloride Free Buffer, 0.04% Pluronic F127, 20 μM Methyl Oxonol, 30 μM CaCCinh-A01, 30 μM Chicago Sky Blue.
Chloride Free Dye Stimulation Solution consisted of Chloride Free Dye Solution, 10 μM forskolin, 100 μM IBMX, and 300 nM Compound III.
Human intestinal epithelial enteroid cells were obtained from the Hubrecht Institute for Developmental Biology and Stem Cell Research, Utrecht, The Netherlands and expanded in T-Flasks as previously described (Dekkers J F, Wiegerinck C L, de Jonge H R, Bronsveld I, Janssens H M, de Winter-de Groot K M, Brandsma A M, de Jong N W M, Bijvelds M J C, Scholte B J, Nieuwenhuis E E S, van den Brink S, Clevers H, van der Ent C K, Middendorp S and M Beekman J M. A functional CFTR assay using primary cystic fibrosis intestinal organoids. Nat Med. 2013 July; 19(7):939-45.).
3. Enteroid Cell Harvesting and Seeding
Cells were recovered in cell recovery solution, collected by centrifugation at 650 rpm for 5 min at 4° C., resuspended in TrypLE and incubated for 5 min at 37° C. Cells were then collected by centrifugation at 650 rpm for 5 min at 4° C. and resuspended in IEMM containing 10 μM ROCK inhibitor (RI). The cell suspension was passed through a 40 μm cell strainer and resuspended at 1×10^6 cells/mL in IEMM containing 10 μM RI. Cells were seeded at 5000 cells/well into multi-well plates and incubated for overnight at 37° C., 95% humidity and 5% CO2 prior to assay.
5. Membrane Potential Dye, Enteroid Assay B
Enteroid cells were incubated with test compound in IEMM for 18-24 hours at 37° C., 95% humidity and 5% CO2. […] Briefly, cells were washed 5 times in Bath 1 Buffer. Bath 1 Dye Solution was added and the cells were incubated for 25 min at room temperature. Following dye incubation, cells were washed 3 times in Chloride Free Dye Solution. Chloride transport was initiated by addition of Chloride Free Dye Stimulation Solution and the fluorescence signal was read for 15 min. […] Chloride transport was then expressed as a percentage of the chloride transport following treatment with 1 μM (14S)-8-[3-(2-{Dispiro[2.0.2.1]heptan-7-yl}ethoxy)-1H-pyrazol-1-yl]-12,12-dimethyl-2λ^6-thia-3,9,11,18,23-pentaazatetracyclo[17.3.1.111,14.05,10]tetracosa-1(22),5,7,9,19(23),20-hexaene-2,2,4-trione, 3 μM (R)-1-(2,2-difluorobenzo[d][1,3]dioxol-5-yl)-N-(1-(2,3-dihydroxypropyl)-6-fluoro-2-(1-hydroxy-2-methylpropan-2-yl)-1H-indol-5-yl)cyclopropanecarboxamide and 300 nM acute N-[2,4-bis(1,1-dimethylethyl)-5-hydroxyphenyl]-1,4-dihydro-4-oxoquinoline-3-carboxamide triple combination control (% Activity).

Setting [1] is: Table 10, read-out: Ent. B EC50.

Sequence of CFTR (P13569 with tags, fused parts or gaps DEL508-508): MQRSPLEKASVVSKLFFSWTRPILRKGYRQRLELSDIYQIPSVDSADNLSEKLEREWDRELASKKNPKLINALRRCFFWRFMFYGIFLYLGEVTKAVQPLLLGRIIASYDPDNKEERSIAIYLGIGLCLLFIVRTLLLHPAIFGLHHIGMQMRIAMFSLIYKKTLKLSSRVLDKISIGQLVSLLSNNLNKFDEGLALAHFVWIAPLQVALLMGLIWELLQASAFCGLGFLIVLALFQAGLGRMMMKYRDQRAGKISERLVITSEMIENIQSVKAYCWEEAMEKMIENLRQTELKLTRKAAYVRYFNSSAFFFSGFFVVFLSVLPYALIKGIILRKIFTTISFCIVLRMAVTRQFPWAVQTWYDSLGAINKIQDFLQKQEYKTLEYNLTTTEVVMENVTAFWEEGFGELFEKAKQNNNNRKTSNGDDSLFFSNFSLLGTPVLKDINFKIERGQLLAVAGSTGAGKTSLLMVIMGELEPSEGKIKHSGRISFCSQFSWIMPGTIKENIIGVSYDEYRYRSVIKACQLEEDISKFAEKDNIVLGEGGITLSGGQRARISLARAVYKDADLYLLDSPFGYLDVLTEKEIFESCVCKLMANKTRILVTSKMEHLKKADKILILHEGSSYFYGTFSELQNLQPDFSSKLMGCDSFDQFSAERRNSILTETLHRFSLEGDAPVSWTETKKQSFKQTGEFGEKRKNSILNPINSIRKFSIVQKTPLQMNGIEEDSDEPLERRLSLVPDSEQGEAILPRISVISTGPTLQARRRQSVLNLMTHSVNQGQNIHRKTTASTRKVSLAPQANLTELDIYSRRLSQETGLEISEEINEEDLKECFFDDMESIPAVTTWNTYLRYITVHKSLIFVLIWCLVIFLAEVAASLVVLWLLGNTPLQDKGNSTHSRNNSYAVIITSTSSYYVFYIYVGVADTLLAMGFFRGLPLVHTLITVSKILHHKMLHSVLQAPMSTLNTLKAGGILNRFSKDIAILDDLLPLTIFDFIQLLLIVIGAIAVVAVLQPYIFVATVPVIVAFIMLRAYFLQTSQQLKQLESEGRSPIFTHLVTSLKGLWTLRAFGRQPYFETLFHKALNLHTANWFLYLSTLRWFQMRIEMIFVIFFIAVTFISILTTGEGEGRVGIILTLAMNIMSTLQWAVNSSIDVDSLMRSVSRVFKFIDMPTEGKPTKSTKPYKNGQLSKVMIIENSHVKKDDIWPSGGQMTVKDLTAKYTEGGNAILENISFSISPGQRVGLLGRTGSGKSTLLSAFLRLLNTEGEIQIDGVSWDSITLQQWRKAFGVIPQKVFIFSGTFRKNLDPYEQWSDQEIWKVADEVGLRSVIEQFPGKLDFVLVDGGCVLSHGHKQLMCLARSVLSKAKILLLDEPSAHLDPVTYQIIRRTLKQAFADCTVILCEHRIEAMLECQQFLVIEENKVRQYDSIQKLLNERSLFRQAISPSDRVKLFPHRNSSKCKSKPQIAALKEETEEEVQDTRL

In the case of `Cc1cccc(C)c1-c1cc2nc(n1)NS(=O)(=O)c1cccc(c1)C(=O)N(C1CC(NC3CCOCC3)C1)[C@H](CC(C)C)CO2` (stereo partly drawn) [Compound 71, (11R)-6-(2,6-dimethylphenyl)-11-isobutyl-2,2-dioxo-12-[3-(tetrahydropyran-4-ylamino)cyclobutyl]-9-oxa-2λ^6-thia-3,5,12,19-tetrazatricyclo[12.3.1.14,8]nonadeca-1(18),4(19),5,7,14,16-hexaen-13-one], the “Ent. B Max Activity (%)” value (Table 9) was “+++ (+++ is >60%)”. For the same molecule, the EC50 (Table 9, read-out: Ent. B EC50) is below 1000 nM.
As to `COC(=O)N(C)C1CC2(C1)CC(N1C(=O)c3cccc(c3)S(=O)(=O)Nc3nc(cc(-c4c(C)cccc4C)n3)OC[C@H]1CC(C)(C)C)C2` (stereo partly drawn) [Compound 94, Methyl ((2R,4r,6R)-6-((R)-1^6-(2,6-dimethylphenyl)-7-neopentyl-3,3-dioxido-5-oxo-9-oxa-3-thia-2,6-diaza-1(2,4)-pyrimidina-4(1,3)-benzenacyclononaphane-6-yl)spiro[3.3]heptan-2-yl)(methyl)carbamate], for the setting “Table 10”, the “Ent. B Max Activity (%)” value is recorded as “++ (++ is 30-60%)”. Also, the EC50 under setting [1] was below 1000 nM.
Consider `CCC(=O)NC1CC(N2C(=O)c3cccc(c3)S(=O)(=O)Nc3nc(cc(-c4c(C)cccc4C)n3)OC[C@H]2CC(C)(C)C)C1` (stereo in doubt) [Compound 446], for which, for the setting “Table 9”, the “Ent. B Max Activity (%)” value was “+++ (+++ is >60%)”. Further, for the setting “Table 9, read-out: Ent. B EC50”, the EC50 is below 1000 nM.
With `COC(=O)NC[C@H]1C[C@@H](N2C(=O)c3cccc(c3)S(=O)(=O)Nc3nc(cc(-c4c(C)cccc4C)n3)OC[C@H]2CC(C)C)C1` (stereo in doubt) [Compound 264], where the note is “Table 9”, the “Ent. B Max Activity (%)” value is “+++ (+++ is >60%)”. Moreover, the half-maximal effective concentration (EC50) (Table 9, read-out: Ent. B EC50) is below 1000 nM.
As for `CCC(=O)N(C)C1CC(N2C(=O)c3cccc(c3)S(=O)(=O)Nc3nc(cc(-c4c(C)cccc4C)n3)OC[C@H]2CC(C)(C)C)C1` (stereo in doubt) [Compound 239], the “Ent. B Max Activity (%)” value (Table 10) is on record as “++ (++ is 30-60%)”. In addition, the 50% effective concentration (EC50) under setting [1] was below 1000 nM.
In the case of `Cc1cccc(C)c1-c1cc2nc(n1)NS(=O)(=O)c1cccc(c1)C(=O)N(C1CC3(CCN(C4CCOCC4)CC3)C1)[C@H](CC(C)C)CO2` [Compound 275], for the setting “Table 9”, the “Ent. B Max Activity (%)” value was “+++ (+++ is >60%)”. Also, the EC50 (Table 9, read-out: Ent. B EC50) was below 1000 nM.
Turning to `Cc1cccc(C)c1-c1cc2nc(n1)NS(=O)(=O)c1cccc(c1)C(=O)N(c1cnn(C3CCN(Cc4ccccc4)CC3)c1)[C@H](CC(C)(C)C)CO2` [Compound 226], the “Ent. B Max Activity (%)” value (Table 10) was “+ (+ is <300%)”. Moreover, under setting [1], the concentration giving a half-maximal response (EC50) is below 1000 nM.
Consider `Cc1cccc(C)c1-c1cc2nc(n1)NS(=O)(=O)c1cc(n(C)n1)C(=O)N(C1CC3(CCN(C)CC3)C1)[C@H](CC(C)C)CO2` [Compound 293], for which the “Ent. B Max Activity (%)” value (Table 9) is given as “+++ (+++ is >60%)”. Besides, the concentration giving a half-maximal response (EC50) (Table 9, read-out: Ent. B EC50) lay within 1000 to 3000 nM.
On the same counts, the results for `Cc1cccc(C)c1-c1cc2nc(n1)NS(=O)(=O)c1cccc(c1)C(=O)N(C1CC(OC(F)(F)F)C1)[C@H](CC(C)C)CO2` (stereo in doubt) [Compound 214] are “+++ (+++ is >60%)” and below 1000 nM.
As for `CO[C@H](C)C(=O)N1CCC2(CC1)CC(N1C(=O)c3cccc(c3)S(=O)(=O)Nc3nc(cc(-c4c(C)cccc4C)n3)OC[C@H]1CC(C)C)C2` [Compound 457], the “Ent. B Max Activity (%)” value (Table 9) is listed as “+++ (+++ is >60%)”. Besides, the EC50 (Table 9, read-out: Ent. B EC50) is below 1000 nM.
Consider `Cc1cccc(C)c1-c1cc2nc(n1)NS(=O)(=O)c1cccc(c1)C(=O)N(C1CC3(CC(N)C3)C1)[C@H](CC(C)(C)C)CO2` (stereo partly drawn) [Compound 463], for which the “Ent. B Max Activity (%)” value (Table 9) is “+++ (+++ is >60%)”. Besides, the EC50 (Table 9, read-out: Ent. B EC50) is below 1000 nM.
For `Cc1cccc(C)c1-c1cc2nc(n1)NS(=O)(=O)c1cccc(c1)C(=O)N(C1CC3(CCN(CCO)CC3)C1)[C@H](CC(C)C)CO2` [Compound 289] the same measures were “++ (++ is 30-60%)” and below 1000 nM.
For `CC(=O)NC1CC(N2C(=O)c3cccc(c3)S(=O)(=O)Nc3nc(cc(-c4c(C)cccc4C)n3)OC[C@H]2CC(C)(C)C)C1` (stereo in doubt) [Compound 449] the same measures were “+++ (+++ is >60%)” and below 1000 nM.
`Cc1cccc(C)c1-c1cc2nc(n1)NS(=O)(=O)c1cccc(c1)C(=O)N([C@H]1C[C@@H](CC(C)(C)O)C1)[C@H](CC(C)(C)C)CO2` (single isomer, unassigned) [Compound 152]: for the setting “Table 10”, the “Ent. B Max Activity (%)” value is “+++ (+++ is >60%)”. The EC50 under setting [1] is below 1000 nM.
For the molecule `[H][C@]1(N2C(=O)c3cccc(c3)S(=O)(=O)Nc3nc(cc(-c4c(C)cccc4C)n3)OC[C@H]2CC(C)C)C[C@@]2(C[C@H](N(C)CCOC)C2)C1` (stereo partly drawn) [Compound 286], the “Ent. B Max Activity (%)” value (Table 9) was “+++ (+++ is >60%)”. Further, where the note is “Table 9, read-out: Ent. B EC50”, the 50% effective concentration (EC50) is below 1000 nM.
On to `Cc1cccc(C)c1-c1cc2nc(n1)NS(=O)(=O)c1cccc(c1)C(=O)N([C@H]1C[C@@H](OC(F)(F)F)C1)[C@H](CC1(C(F)(F)F)CC1)CO2` (stereo in doubt) [Compound 212], for which the “Ent. B Max Activity (%)” value (Table 10) was “++ (++ is 30-60%)”. In addition, the EC50 under setting [1] was below 1000 nM.
For `COC(=O)N[C@H]1CC2(C1)C[C@H](N1C(=O)c3cccc(c3)S(=O)(=O)Nc3nc(cc(-c4c(C)cccc4C)n3)OC[C@H]1CC(C)C)C2` (stereo partly drawn) [Compound 304], the “Ent. B Max Activity (%)” value is recorded as “+++ (+++ is >60%)”. The EC50 (read-out: Ent. B EC50) is below 1000 nM.
With `CCN(C(=O)OC)C1CC2(C1)CC(N1C(=O)c3cccc(c3)S(=O)(=O)Nc3nc(cc(-c4c(C)cccc4C)n3)OC[C@H]1CC(C)(C)C)C2` (stereo in doubt) [Compound 236], the “Ent. B Max Activity (%)” value (Table 10) was “++ (++ is 30-60%)”. Moreover, the concentration for a half-maximal effect (EC50) under setting [1] is below 1000 nM.
Take `Cc1cccc(C)c1-c1cc2nc(n1)NS(=O)(=O)c1cccc(c1)C(=O)N(C1CC3(CC(C(N)=O)C3)C1)[C@H](CC(C)(C)C)CO2` (stereo partly drawn) [Compound 233]: the “Ent. B Max Activity (%)” value (Table 10) was “+++ (+++ is >60%)”. Further, under setting [1], the 50% effective concentration (EC50) is below 1000 nM.
Regarding `COC1CC(N2C(=O)c3cccc(c3)S(=O)(=O)Nc3nc(cc(-c4c(C)cccc4C)n3)OC[C@H]2CC2(C(F)(F)F)CC2)C1` (stereo in doubt) [Compound 466], the “Ent. B Max Activity (%)” value is on record as “+++ (+++ is >60%)”. In addition, the half-maximal effective concentration (EC50) (read-out: Ent. B EC50) is below 1000 nM.
`COC(=O)NCC1CC(N2C(=O)c3cccc(c3)S(=O)(=O)Nc3nc(cc(-c4c(C)cccc4C)n3)OC[C@H]2CC(C)C)C1` (stereo partly drawn) [Compound 263]: under “Table 9”, the “Ent. B Max Activity (%)” value is given as “+++ (+++ is >60%)”. Further, the concentration giving a half-maximal response (EC50) (Table 9, read-out: Ent. B EC50) is below 1000 nM.
Take `CC(C)C[C@@H]1COc2cc(-c3c(F)cccc3C(F)(F)F)nc(n2)NS(=O)(=O)c2cccc(c2)C(=O)N1C1CC2(CC2)C1` [Compound 202]: under “Table 10”, the “Ent. B Max Activity (%)” value is “++ (++ is 30-60%)”. For the same molecule, under setting [1], the EC50 is below 1000 nM.
For `Cc1cccc(C)c1-c1cc2nc(n1)NS(=O)(=O)c1cccc(c1)C(=O)N([C@H]1C[C@@H](N)C1)[C@H](CC1(C(F)(F)F)CC1)CO2` (single isomer, unassigned) [Compound 56], the “Ent. B Max Activity (%)” value (Table 9) is “+++ (+++ is >60%)”. The half-maximal effective concentration (EC50) (Table 9, read-out: Ent. B EC50) is below 1000 nM.
Take `Cc1cccc(C)c1-c1cc2nc(n1)NS(=O)(=O)c1cccc(c1)C(=O)N(C1CC3(CCN(CCOCc4ccccc4)CC3)C1)[C@H](CC(C)C)CO2` [Compound 290]: the “Ent. B Max Activity (%)” value (Table 9) is “+++ (+++ is >60%)”. The EC50 (Table 9, read-out: Ent. B EC50) was below 1000 nM.

What is called EC50 is the concentration needed to bring the measured effect to its halfway point.

These data come from US20230382925A1, “MODULATORS OF CYSTIC FIBROSIS TRANSMEMBRANE CONDUCTANCE REGULATOR” (VERTEX PHARMACEUTICALS INCORPORATED, priority 2020, published 2023).
